Laboratory results taken from patent publication US20040091949A1, “Method of screening drug acting on cell wall” (priority 2000, published 2004).

Legend:
[1] = system: AY-2 strain (wall-type arming yeast); test: GFP releasing effect of available antifungal agents, wall-type arming yeast; type: cell-based, S. cerevisiae; details: RPMIB medium protected for osmotic pressure, supernatant fluorescence, difference from control with no agent
Procedure: (§1) The cultured yeast cells in the logarithmic growth phase (AY-2 strain or AY-12 strain) were collected, and various agents were allowed to act on the yeast cells. Fluorescence intensity of the culture supernatant was measured by using Cytofluor 2300 Fluorometer (Millipore, excitation=480 nm, emission=530 nm). The fluorescence intensity under treatment with each of various agents was shown in terms of a difference in fluorescence intensity compared with that of a control in which no agent was added.
(§2) In order to ascertain whether or not the method of the present invention can be utilized for a screening of agents with a targeting site other than Kre6p, the GFP releasing effects in the AY-2 strain (wall-type arming yeast) and the AY-12 strain (membrane-type arming yeast) were compared under actions of available antifungal agents. The AY-2 strain cells and the AY-12 strain cells each cultured in a test tube were floated on a medium (RPMIB) protected for osmotic pressure, and each of the agents was allowed to act on the cells. After the culture, the fluorescence intensity of the supernatant was measured, and a difference from that of a control with no addition of the agent was calculated.

[2] = system: AY-12 strain (membrane-type arming yeast); test: GFP releasing effect of available antifungal agents, membrane-type arming yeast; type: cell-based, S. cerevisiae; details: RPMIB medium protected for osmotic pressure, supernatant fluorescence, difference from control with no agent
Procedure: as §1, §2

Compound	GFP releasing effect [1]	GFP releasing effect [2]
C[C@@H]1[C@H](O)[C@@H](C)/C=C/C=C/C=C/C=C/C=C/C=C/C=C/[C@H](O[C@@H]2O[C@H](C)[C@@H](O)[C@H](N)[C@@H]2O)C[C@@H]2O[C@](O)(C[C@@H](O)C[C@@H](O)[C@H](O)CC[C@@H](O)C[C@@H](O)CC(=O)O[C@H]1C)C[C@H](O)[C@H]2C(=O)O [Amphotericin B]	Slight releasing effect	Slight releasing effect
OC(Cn1cncn1)(Cn1cncn1)c1ccc(F)cc1F [Fluconazole]	Slight releasing effect	Slight releasing effect
CC[C@@H](C(=O)[C@@H](C)[C@@H](O)[C@H](C)[C@@H]1O[C@@H]([C@@H](CC)C(=O)O)CC[C@@H]1C)[C@H]1O[C@]2(C=C[C@@H](O)[C@]3(CC[C@@](C)([C@H]4CC[C@](O)(CC)[C@H](C)O4)O3)O2)[C@H](C)C[C@@H]1C [Salinomycin]	Slight releasing effect	Slight releasing effect
Aculeacin A	Marked GFP releasing effect	almost no releasing effect
Tunicamycin	Marked GFP releasing effect	almost no releasing effect
